Test results from ChEMBL document CHEMBL5214956, “Structure-based design and modular synthesis of novel PI4K class II inhibitors bearing a 4-aminoquinazoline scaffold” (Bioorg Med Chem Lett, 2022).

Legend:
[1] = target: Phosphatidylinositol 4-kinase type 2-alpha (Homo sapiens, UniProt Q9BTU6); assay: Inhibition of PI4K2A catalytic domain (unknown origin) assessed as enzyme residual activity incubated for 60 mins using ATP as substrate by ATP-Glo luminescent assay
[2] = target: Phosphatidylinositol 4-kinase beta (Homo sapiens, UniProt Q9UBF8); assay: Inhibition of PI4KB catalytic domain (unknown origin) assessed as enzyme residual activity incubated for 60 mins using ATP as substrate by ATP-Glo luminescent assay
Sequence of Phosphatidylinositol 4-kinase beta (Q9UBF8 whole entry, the tested form may be a part): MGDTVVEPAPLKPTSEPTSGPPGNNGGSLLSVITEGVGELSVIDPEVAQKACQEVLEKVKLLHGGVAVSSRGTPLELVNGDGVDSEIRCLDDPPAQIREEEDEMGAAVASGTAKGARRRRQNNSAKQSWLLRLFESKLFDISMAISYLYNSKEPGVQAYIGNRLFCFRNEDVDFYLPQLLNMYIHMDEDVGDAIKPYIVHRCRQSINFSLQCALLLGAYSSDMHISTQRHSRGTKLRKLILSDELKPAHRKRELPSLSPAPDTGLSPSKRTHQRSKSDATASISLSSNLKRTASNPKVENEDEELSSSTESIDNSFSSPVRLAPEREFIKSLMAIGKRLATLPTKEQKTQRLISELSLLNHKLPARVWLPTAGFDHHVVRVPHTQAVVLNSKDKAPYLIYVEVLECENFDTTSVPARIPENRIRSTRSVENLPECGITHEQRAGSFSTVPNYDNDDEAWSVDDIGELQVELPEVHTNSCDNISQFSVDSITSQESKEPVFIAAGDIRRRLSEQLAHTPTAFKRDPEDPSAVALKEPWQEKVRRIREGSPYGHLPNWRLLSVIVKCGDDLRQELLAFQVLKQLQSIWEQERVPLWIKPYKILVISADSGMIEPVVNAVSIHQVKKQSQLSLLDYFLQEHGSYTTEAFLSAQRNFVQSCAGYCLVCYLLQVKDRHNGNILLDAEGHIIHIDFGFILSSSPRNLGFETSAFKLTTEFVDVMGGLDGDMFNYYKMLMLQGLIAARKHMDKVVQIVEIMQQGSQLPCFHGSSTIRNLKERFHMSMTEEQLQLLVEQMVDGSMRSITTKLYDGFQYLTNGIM

[3] = target: Phosphatidylinositol 4-kinase alpha (Homo sapiens, UniProt P42356); assay: Inhibition of PI4KA catalytic domain (unknown origin) assessed as enzyme residual activity incubated for 60 mins using ATP as substrate by ATP-Glo luminescent assay
Sequence of Phosphatidylinositol 4-kinase alpha (P42356 whole entry, the tested form may be a part): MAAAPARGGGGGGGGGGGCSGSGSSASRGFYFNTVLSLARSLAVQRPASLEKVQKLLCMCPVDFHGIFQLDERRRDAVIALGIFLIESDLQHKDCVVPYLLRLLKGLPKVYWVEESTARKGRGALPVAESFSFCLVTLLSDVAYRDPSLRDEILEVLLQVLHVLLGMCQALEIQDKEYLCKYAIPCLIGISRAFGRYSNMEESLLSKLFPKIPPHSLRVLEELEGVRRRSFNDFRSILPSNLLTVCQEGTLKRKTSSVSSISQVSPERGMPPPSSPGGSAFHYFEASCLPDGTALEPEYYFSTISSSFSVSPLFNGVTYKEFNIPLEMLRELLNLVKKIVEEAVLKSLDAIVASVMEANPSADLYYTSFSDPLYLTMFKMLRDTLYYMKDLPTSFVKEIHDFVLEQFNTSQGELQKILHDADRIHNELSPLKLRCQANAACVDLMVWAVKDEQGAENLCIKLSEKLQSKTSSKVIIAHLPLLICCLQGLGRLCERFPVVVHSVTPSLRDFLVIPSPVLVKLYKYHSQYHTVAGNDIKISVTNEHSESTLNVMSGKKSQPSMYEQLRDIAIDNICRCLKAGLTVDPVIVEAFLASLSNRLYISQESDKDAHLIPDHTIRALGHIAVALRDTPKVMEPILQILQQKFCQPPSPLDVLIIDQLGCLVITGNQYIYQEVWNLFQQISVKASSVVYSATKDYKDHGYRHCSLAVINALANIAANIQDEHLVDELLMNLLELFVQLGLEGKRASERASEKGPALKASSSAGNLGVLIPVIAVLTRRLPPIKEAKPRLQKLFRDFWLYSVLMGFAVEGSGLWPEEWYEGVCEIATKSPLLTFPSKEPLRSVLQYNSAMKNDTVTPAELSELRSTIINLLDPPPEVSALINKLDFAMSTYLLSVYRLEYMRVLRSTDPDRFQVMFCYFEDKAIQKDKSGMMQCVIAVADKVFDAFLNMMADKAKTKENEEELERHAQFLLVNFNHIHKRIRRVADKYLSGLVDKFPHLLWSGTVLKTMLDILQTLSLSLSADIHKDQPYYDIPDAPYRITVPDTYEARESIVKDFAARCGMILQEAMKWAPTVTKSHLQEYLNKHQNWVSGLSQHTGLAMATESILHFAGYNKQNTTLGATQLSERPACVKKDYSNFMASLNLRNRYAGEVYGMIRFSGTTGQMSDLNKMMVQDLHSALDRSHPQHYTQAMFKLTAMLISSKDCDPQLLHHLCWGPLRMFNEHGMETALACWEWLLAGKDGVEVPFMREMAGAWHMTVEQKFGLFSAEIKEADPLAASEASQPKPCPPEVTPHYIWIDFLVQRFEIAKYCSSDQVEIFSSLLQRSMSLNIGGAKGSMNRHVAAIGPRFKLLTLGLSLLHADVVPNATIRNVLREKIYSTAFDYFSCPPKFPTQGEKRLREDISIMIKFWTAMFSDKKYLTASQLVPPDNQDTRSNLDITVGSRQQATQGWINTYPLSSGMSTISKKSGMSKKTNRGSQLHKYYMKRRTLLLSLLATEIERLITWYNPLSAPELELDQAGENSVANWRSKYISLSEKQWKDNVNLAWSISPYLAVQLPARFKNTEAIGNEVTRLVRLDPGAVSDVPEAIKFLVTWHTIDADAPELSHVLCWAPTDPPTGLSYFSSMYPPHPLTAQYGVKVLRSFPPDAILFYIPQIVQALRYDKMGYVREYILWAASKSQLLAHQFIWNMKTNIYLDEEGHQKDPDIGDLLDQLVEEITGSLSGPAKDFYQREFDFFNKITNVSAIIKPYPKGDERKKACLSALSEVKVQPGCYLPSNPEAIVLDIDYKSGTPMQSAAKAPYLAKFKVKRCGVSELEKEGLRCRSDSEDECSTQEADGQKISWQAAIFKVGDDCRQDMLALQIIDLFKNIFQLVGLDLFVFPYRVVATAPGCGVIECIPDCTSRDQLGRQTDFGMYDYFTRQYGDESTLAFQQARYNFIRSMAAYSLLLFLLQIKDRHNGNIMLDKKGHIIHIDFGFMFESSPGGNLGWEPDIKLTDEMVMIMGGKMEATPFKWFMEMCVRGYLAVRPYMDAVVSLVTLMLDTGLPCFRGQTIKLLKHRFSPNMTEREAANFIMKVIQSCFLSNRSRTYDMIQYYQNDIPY

Sequence of Phosphatidylinositol 4-kinase type 2-alpha (Q9BTU6 whole entry, the tested form may be a part): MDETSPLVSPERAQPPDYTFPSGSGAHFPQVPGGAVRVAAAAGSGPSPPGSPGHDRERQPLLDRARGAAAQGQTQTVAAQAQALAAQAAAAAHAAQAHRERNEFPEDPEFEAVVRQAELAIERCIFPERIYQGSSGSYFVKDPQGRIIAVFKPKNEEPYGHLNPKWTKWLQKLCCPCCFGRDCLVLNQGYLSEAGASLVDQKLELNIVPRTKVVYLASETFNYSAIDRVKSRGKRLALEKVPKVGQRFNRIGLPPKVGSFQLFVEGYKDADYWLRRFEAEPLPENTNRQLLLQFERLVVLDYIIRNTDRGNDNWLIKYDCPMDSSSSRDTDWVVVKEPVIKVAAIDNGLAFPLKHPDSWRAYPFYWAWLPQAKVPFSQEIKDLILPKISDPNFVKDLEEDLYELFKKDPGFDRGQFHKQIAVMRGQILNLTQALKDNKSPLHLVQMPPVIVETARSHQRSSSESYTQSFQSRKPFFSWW

| Structure (SMILES) | IC50 [1] | IC50 [2] | IC50 [3] |
| --- | --- | --- | --- |
| CCCCc1cc(=O)oc2cc(OCC(=O)N[C@@H](Cc3c[nH]c4ccc(O)cc34)C(=O)O)ccc12 | 1.46 µM | > 50 µM | > 50 µM |
| NC(=O)c1cc2c(N)ncnc2cc1-c1ccc2[nH]ccc2c1 |  | > 50 µM | > 50 µM |
| Nc1ncnc2c1ncn2[C@@H]1C[C@@]2(CO)CC[C@@H]1C2 |  | > 50 µM | > 50 µM |
| NC(=O)c1cc2c(N)ncnc2cc1-c1ccc2cc[nH]c2c1 |  | > 50 µM | > 50 µM |
| COC[C@H]1OC(=O)c2coc3c2[C@@]1(C)C1=C(C3=O)[C@@H]2CCC(=O)[C@@]2(C)C[C@H]1OC(C)=O [WORTMANNIN] | > 30 µM | 0.44 µM | 0.28 µM |

More lines, now with the values ahead:

| IC50 [1] | IC50 [2] | IC50 [3] | Structure (SMILES) |
| --- | --- | --- | --- |
| > 50 µM |  |  | NC(=O)c1cc2c(N)ncnc2cc1-c1ccc(CO)o1 |
| > 50 µM |  |  | NC(=O)c1cc2c(N)ncnc2cc1-c1cncc(CO)c1 |
|  |  | > 50 µM | NC(=O)c1cc2c(N)ncnc2cc1-c1ccc2[nH]cnc2c1 |
|  | > 50 µM | > 50 µM | CC(=O)Nc1cccc(-c2cc3ncnc(N)c3cc2C(N)=O)c1 |
|  | > 50 µM | > 50 µM | NC(=O)c1cc2c(N)ncnc2cc1-c1cccc(CO)c1 |
|  | > 50 µM | > 50 µM | NC(=O)c1cc2c(N)ncnc2cc1-c1ccc2c(c1)CCO2 |
|  | > 50 µM | > 50 µM | NC(=O)c1cc2c(N)ncnc2cc1-c1ccc2c(c1)OCO2 |
